The source of these data is EP3130594B1, “PHOSPHONATES OF ACETYLENIC BETULIN DERIVATIVES WITH ANTICANCER ACTIVITY, METHOD FOR THEIR PRODUCTION AND THEIR APPLICATION” (Slaski Uniwersytet Medyczny w Katowicach, priority 2015, dated 2017).

Converted amounts (≈) assume the structure as drawn.

Experiment in all cases: Cytotoxic activity in vitro, WST1 test
In general terms: Tetrazolium assays rely on reduction of a dye to a coloured formazan, in cell work by metabolically active cells.

The subject of series [1] is breast cancer T47D. Format: cell-based, human. Particulars: T47D cells, Neg = no activity in the applied concentration range; for IC50: Homo sapiens, read-out: Cytotoxic activity in vitro as IC50. As to the method: (§1) The evaluation of cytotoxic activity of the compounds described with Formula 2 was carried out against human cancer cells [brain glioma SNB-19, breast cancer T47D, melanoma C32] using WST1 tests (Table 1).

Series [2] concerns brain glioma SNB-19. Format: cell-based. Particulars: Homo sapiens, SNB-19 cells, read-out: Cytotoxic activity in vitro as IC50. As to the method:
as §1

The subject of series [3] is melanoma C32. Format: cell-based. Particulars: Homo sapiens, C32 cells, read-out: Cytotoxic activity in vitro as IC50. As to the method: as §1

Turning to `CC#CC(=O)OC[C@]12CC[C@@H](/C(C)=C/P(=O)(OCC)OCC)[C@@H]1[C@H]1CC[C@@H]3[C@@]4(C)CC[C@H](OC(=O)C#CC)C(C)(C)[C@@H]4CC[C@@]3(C)[C@]1(C)CC2` [3,28-Di(2-butynoyl)-29-diethoxyphosphorylbetulin], the IC50 (usually the concentration at which inhibition is half-maximal) is 13.9 ± 3.4 µg/mL (≈ 19.6 µM) in series [1], 7.6 ± 1 µg/mL (≈ 10.7 µM) in series [2] and 4.9 ± 0.3 µg/mL (≈ 6.89 µM) in series [3].
The like results for `CCOP(=O)(/C=C(\C)[C@@H]1CC[C@]2(COC(=O)C#CC3CC3)CC[C@]3(C)[C@H](CC[C@@H]4[C@@]5(C)CC[C@H](OC(=O)C#CC6CC6)C(C)(C)[C@@H]5CC[C@]43C)[C@@H]12)OCC` [3,28-Di(cyclopropylpropynoyl)-29-diethoxyphosphorylbetulin] were, in that order, 79.5 ± 1.9 µg/mL (≈ 104 µM), 40.4 ± 6.8 µg/mL (≈ 52.9 µM) and 9.4 ± 0.2 µg/mL (≈ 12.3 µM).
The corresponding values for `CCOP(=O)(/C=C(\C)[C@@H]1CC[C@]2(COC(=O)C#CC3CC3)CC[C@]3(C)[C@H](CC[C@@H]4[C@@]5(C)CC[C@H](O)C(C)(C)[C@@H]5CC[C@]43C)[C@@H]12)OCC` [28-cyclopropylpropynoyl-29-diethoxyphosphorylbetulin] are 8.2 ± 0.6 µg/mL (≈ 12.2 µM), 2.2 ± 0.8 µg/mL (≈ 3.28 µM) and 4.7 ± 0.7 µg/mL (≈ 7.01 µM).
The like results for `C#CCOC(=O)OC[C@]12CC[C@@H](/C(C)=C/P(=O)(OCC)OCC)[C@@H]1[C@H]1CC[C@@H]3[C@@]4(C)CC[C@H](O)C(C)(C)[C@@H]4CC[C@@]3(C)[C@]1(C)CC2` [29-Diethoxyphosphoryl-28-propargyloxycarbonylbetulin] were, in that order, 49.4 ± 6.1 µg/mL (≈ 74.7 µM), 24.5 ± 12.6 µg/mL (≈ 37.1 µM) and 5.9 ± 0.3 µg/mL (≈ 8.93 µM).
Turning to `C#CCOC(=O)OC[C@]12CC[C@@H](/C(C)=C/P(=O)(OCC)OCC)[C@@H]1[C@H]1CC[C@@H]3[C@@]4(C)CC[C@H](OC(=O)OCC#C)C(C)(C)[C@@H]4CC[C@@]3(C)[C@]1(C)CC2` [29-diethoxyphosphoryl-3,28-di(propargyloxycarbonyl)betulin], the “Cytotoxic activity in vitro as IC50” value in series [1] was “Neg”. In addition, the IC50 in series [2] was found to be 0.5 ± 0.1 µg/mL (≈ 0.673 µM); in series [3], 51.7 ± 4.8 µg/mL (≈ 69.6 µM).
Take `C=C(C)[C@@H]1CC[C@]2(CO)CC[C@]3(C)[C@H](CC[C@@H]4[C@@]5(C)CC[C@H](O)C(C)(C)[C@@H]5CC[C@]43C)[C@@H]12` [Betulin, lup-20(29)-ene-3β,28-diol]: the IC50 in series [1] stood at 77.9 ± 4 µg/mL (≈ 176 µM); in series [2], 23.5 ± 2 µg/mL (≈ 53.1 µM).
As for `C=C(CP(=O)(OCC)OCC)[C@@H]1CC[C@]2(COC(C)=O)CC[C@]3(C)[C@H](CC[C@@H]4[C@@]5(C)CC[C@H](OC(C)=O)C(C)(C)[C@@H]5CC[C@]43C)[C@@H]12` [R = R1 = Et, R2 = AcO, R3 = CH2OAc, 3, 28 - Diacetyl - 30 - diethoxyphosphorylbetulin], the half-inhibitory concentration (IC50) in series [1] was determined as 58 ± 3.4 µg/mL (≈ 87.5 µM); in series [2], 51.9 ± 0.8 µg/mL (≈ 78.3 µM).
With `C#CC(=O)OC[C@]12CC[C@@H](/C(C)=C/P(=O)(OCC)OCC)[C@@H]1[C@H]1CC[C@@H]3[C@@]4(C)CC[C@H](O)C(C)(C)[C@@H]4CC[C@@]3(C)[C@]1(C)CC2` [R = R1 = Et, R2 = HO, R3 =CH2C(O)C≡CH, 29-Diethoxyphosphoryl-28-propynoylbetulin], the IC50 in series [1] turned out to be 0.4 ± 0.1 µg/mL (≈ 0.634 µM); in series [2] it was 0.3 ± 0.1 µg/mL (≈ 0.476 µM).
Turning to `CC#CC(=O)OC[C@]12CC[C@@H](/C(C)=C/P(=O)(OCC)OCC)[C@@H]1[C@H]1CC[C@@H]3[C@@]4(C)CC[C@H](O)C(C)(C)[C@@H]4CC[C@@]3(C)[C@]1(C)CC2` [R = R1 =Et, R2 =HO, R3 =CH2OC(O)C ≡ CCH3, 28-(2-butynoyl)-29-diethoxyphosphorylbetulin], the IC50 in series [1] stood at 9.6 ± 0.6 µg/mL (≈ 14.9 µM); in series [2] it was 7.5 ± 0.3 µg/mL (≈ 11.6 µM); in series [3], 4.9 ± 0.1 µg/mL (≈ 7.6 µM).
Consider `C#CC(=O)OC[C@]12CC[C@@H](/C(C)=C/P(=O)(OCC)OCC)[C@@H]1[C@H]1CC[C@@H]3[C@@]4(C)CC[C@H](OC(=O)C#C)C(C)(C)[C@@H]4CC[C@@]3(C)[C@]1(C)CC2` [R=R1=Et, R2=HC≡CC(O)O, R3 = CH2C(O)C≡CH, 29-Diethoxyphosphoryl-3,28-dipropynoylbetulin], for which the IC50 in series [1] came out at 2.8 ± 0.6 µg/mL (≈ 4.1 µM); in series [2], 0.6 ± 0.1 µg/mL (≈ 0.879 µM).
As for `CCOP(=O)(/C=C(/C)[C@@H]1CC[C@]2(CO)CC[C@]3(C)[C@H](CC[C@@H]4[C@@]5(C)CC[C@H](O)C(C)(C)[C@@H]5CC[C@]43C)[C@@H]12)OCC` [cis R = R1 = Et, R2 =OH, R3 = CH2OH, Z - 29 - Diethoxyphosphorylbetulin], the IC50 in series [1] turned out to be 0.9 ± 0.1 µg/mL (≈ 1.55 µM); in series [2], 4.8 ± 0.1 µg/mL (≈ 8.29 µM).
`CCOP(=O)(/C=C(\C)[C@@H]1CC[C@]2(CO)CC[C@]3(C)[C@H](CC[C@@H]4[C@@]5(C)CC[C@H](O)C(C)(C)[C@@H]5CC[C@]43C)[C@@H]12)OCC` [trans R = R1 =Et, R2= OH, R3 = CH2OH, E-29-Diethoxyphosphorylbetulin]: the values for the IC50 in series [1] and in series [2] were 6.2 ± 0.5 µg/mL (≈ 10.7 µM) and 5.9 ± 0.4 µg/mL (≈ 10.2 µM), respectively.
